In PubChem BioAssay (NCI):
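The concentration for 50% growth inhibition is given as GI50. Definition used: TGI = concentration required for complete inhibition of growth.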

Legend:
Assay in all cases: NCI anticancer screen, dose series, 384-well format
786-0 renal = system: 786-0 renal
A498 renal = system: A498 renal
A549 NSCLC = system: A549 NSCLC
ACHN renal = system: ACHN renal
BT-549 breast = system: BT-549 breast
CAKI-1 renal = system: CAKI-1 renal
CCRF-CEM leukemia = system: CCRF-CEM leukemia
COLO 205 colon = system: COLO 205 colon
DU-145 prostate = system: DU-145 prostate
EKVX NSCLC = system: EKVX NSCLC
HCC-2998 colon = system: HCC-2998 colon
HCT-116 colon = system: HCT-116 colon
HCT-15 colon = system: HCT-15 colon
HL-60(TB) leukemia = system: HL-60(TB) leukemia
HOP-62 NSCLC = system: HOP-62 NSCLC
HOP-92 NSCLC = system: HOP-92 NSCLC
HS 578T breast = system: HS 578T breast
HT29 colon = system: HT29 colon
IGROV1 ovarian = system: IGROV1 ovarian
K-562 leukemia = system: K-562 leukemia
KM12 colon = system: KM12 colon
LOX IMVI melanoma = system: LOX IMVI melanoma
M14 melanoma = system: M14 melanoma
MALME-3M melanoma = system: MALME-3M melanoma
MCF7 breast = system: MCF7 breast
MDA-MB-231 breast = system: MDA-MB-231 breast
MDA-MB-435 melanoma = system: MDA-MB-435 melanoma
MDA-MB-468 breast = system: MDA-MB-468 breast
MOLT-4 leukemia = system: MOLT-4 leukemia
NCI-H226 lung = system: NCI-H226 lung
NCI-H23 lung = system: NCI-H23 lung
NCI-H322M lung = system: NCI-H322M lung
NCI-H460 NSCLC = system: NCI-H460 NSCLC
NCI-H522 lung = system: NCI-H522 lung
NCI/ADR-RES ovarian = system: NCI/ADR-RES ovarian
OVCAR-3 ovarian = system: OVCAR-3 ovarian
OVCAR-4 ovarian = system: OVCAR-4 ovarian
OVCAR-8 ovarian = system: OVCAR-8 ovarian
PC-3 prostate = system: PC-3 prostate
RPMI-8226 leukemia = system: RPMI-8226 leukemia
RXF 393 renal = system: RXF 393 renal
SF-268 CNS = system: SF-268 CNS
SF-295 CNS = system: SF-295 CNS
SF-539 CNS = system: SF-539 CNS
SK-MEL-28 melanoma = system: SK-MEL-28 melanoma
SK-MEL-5 melanoma = system: SK-MEL-5 melanoma
SK-OV-3 ovarian = system: SK-OV-3 ovarian
SN12C renal = system: SN12C renal
SNB-19 CNS = system: SNB-19 CNS
SNB-75 CNS = system: SNB-75 CNS
SR leukemia = system: SR leukemia
SW-620 colon = system: SW-620 colon
T-47D breast = system: T-47D breast
TK-10 renal = system: TK-10 renal
U251 glioblastoma = system: U251 glioblastoma
UACC-257 melanoma = system: UACC-257 melanoma
UACC-62 melanoma = system: UACC-62 melanoma
UO-31 renal = system: UO-31 renal
OVCAR-5 ovarian = system: OVCAR-5 ovarian

## CC(C)c1c(-c2ccccc2)nc2c(C#N)c[nH]n2c1=O
786-0 renal
  GI50: 33.6 µM
  TGI: > 100 µM
A498 renal
  GI50: 40.2 µM
  TGI: > 100 µM
A549 NSCLC
  GI50: 33.1 µM
  TGI: > 100 µM
ACHN renal
  GI50: 38.3 µM
  TGI: > 100 µM
BT-549 breast
  GI50: 39.9 µM
  TGI: > 100 µM
CAKI-1 renal
  GI50: 44.8 µM
  TGI: > 100 µM
CCRF-CEM leukemia
  GI50: 20.8 µM
  TGI: 42.4 µM
COLO 205 colon
  GI50: 24.1 µM
  TGI: 47.9 µM
DU-145 prostate
  GI50: 31.9 µM
  TGI: > 100 µM
EKVX NSCLC
  GI50: 22.4 µM
  TGI: 46.4 µM
HCC-2998 colon
  GI50: 44.9 µM
  TGI: > 100 µM
HCT-116 colon
  GI50: 34.5 µM
  TGI: > 100 µM
HCT-15 colon
  GI50: 38.8 µM
  TGI: > 100 µM
HL-60(TB) leukemia
  GI50: 12.2 µM
  TGI: 25.7 µM
HOP-62 NSCLC
  GI50: 24.9 µM
  TGI: 65.9 µM
HOP-92 NSCLC
  GI50: 30.5 µM
  TGI: 89 µM
HS 578T breast
  GI50: 37.7 µM
  TGI: > 100 µM
HT29 colon
  GI50: 38 µM
  TGI: > 100 µM
IGROV1 ovarian
  GI50: 44 µM
  TGI: > 100 µM
K-562 leukemia
  GI50: 37.7 µM
  TGI: > 100 µM
KM12 colon
  GI50: 30.8 µM
  TGI: > 100 µM
LOX IMVI melanoma
  GI50: 21.1 µM
  TGI: 41.9 µM
M14 melanoma
  GI50: 30.7 µM
  TGI: 96.8 µM
MALME-3M melanoma
  GI50: 17.6 µM
  TGI: 36.1 µM
MCF7 breast
  GI50: 20.9 µM
  TGI: 54.7 µM
MDA-MB-231 breast
  GI50: 24.2 µM
  TGI: 53.5 µM
MDA-MB-435 melanoma
  GI50: 39.9 µM
  TGI: > 100 µM
MDA-MB-468 breast
  GI50: 19.6 µM
  TGI: 37.2 µM
MOLT-4 leukemia
  GI50: 16.2 µM
  TGI: 29.9 µM
NCI-H226 lung
  GI50: 27 µM
  TGI: 70.9 µM
NCI-H23 lung
  GI50: 20.3 µM
  TGI: 44.5 µM
NCI-H322M lung
  GI50: 33.6 µM
  TGI: > 100 µM
NCI-H460 NSCLC
  GI50: 27.4 µM
  TGI: 65.3 µM
NCI-H522 lung
  GI50: 19 µM
  TGI: 37.6 µM
NCI/ADR-RES ovarian
  GI50: 27.5 µM
  TGI: 69.5 µM
OVCAR-3 ovarian
  GI50: 18 µM
  TGI: 36.3 µM
OVCAR-4 ovarian
  GI50: 25.9 µM
  TGI: 74.2 µM
OVCAR-8 ovarian
  GI50: 37.6 µM
  TGI: > 100 µM
PC-3 prostate
  GI50: 37.2 µM
  TGI: > 100 µM
RPMI-8226 leukemia
  GI50: 21.1 µM
  TGI: 37.9 µM
RXF 393 renal
  GI50: 28.6 µM
  TGI: > 100 µM
SF-268 CNS
  GI50: 36.6 µM
  TGI: > 100 µM
SF-295 CNS
  GI50: 22.9 µM
  TGI: 62.4 µM
SF-539 CNS
  GI50: 34.2 µM
  TGI: > 100 µM
SK-MEL-28 melanoma
  GI50: 28.5 µM
  TGI: 96.8 µM
SK-MEL-5 melanoma
  GI50: 19.4 µM
  TGI: 35.6 µM
SK-OV-3 ovarian
  GI50: 36.8 µM
  TGI: > 100 µM
SN12C renal
  GI50: 20.3 µM
  TGI: 41.9 µM
SNB-19 CNS
  GI50: 43.6 µM
  TGI: > 100 µM
SNB-75 CNS
  GI50: 35.2 µM
  TGI: > 100 µM
SR leukemia
  GI50: 25.2 µM
  TGI: 41.2 µM
SW-620 colon
  GI50: 38.8 µM
  TGI: > 100 µM
T-47D breast
  GI50: 21 µM
  TGI: 42.9 µM
TK-10 renal
  GI50: 34.1 µM
  TGI: > 100 µM
U251 glioblastoma
  GI50: 34.4 µM
  TGI: > 100 µM
UACC-257 melanoma
  GI50: 22.3 µM
  TGI: 46.3 µM
UACC-62 melanoma
  GI50: 24.2 µM
  TGI: 66.7 µM
UO-31 renal
  GI50: 38.9 µM
  TGI: > 100 µM

## O=C(NOC[C@H](O)CO)c1ccc(F)c(F)c1Nc1ccc(I)cc1F
786-0 renal
  GI50: 10.4 µM
  TGI: > 100 µM
A498 renal
  GI50: 0.436 µM
  TGI: > 100 µM
A549 NSCLC
  GI50: 0.0196 µM
  TGI: 25.5 µM
ACHN renal
  GI50: 0.471 µM
  TGI: > 100 µM
BT-549 breast
  GI50: 9.53 µM
  TGI: > 100 µM
CAKI-1 renal
  GI50: 0.0974 µM
  TGI: > 100 µM
CCRF-CEM leukemia
  GI50: 39.8 µM
  TGI: > 100 µM
COLO 205 colon
  GI50: < 0.01 µM
  TGI: 0.0136 µM
DU-145 prostate
  GI50: 3.46 µM
  TGI: > 100 µM
EKVX NSCLC
  GI50: 0.358 µM
  TGI: > 100 µM
HCC-2998 colon
  GI50: < 0.01 µM
  TGI: 0.0395 µM
HCT-15 colon
  GI50: 0.749 µM
  TGI: > 100 µM
HL-60(TB) leukemia
  GI50: < 0.01 µM
  TGI: < 0.01 µM
HOP-62 NSCLC
  GI50: 0.0116 µM
  TGI: > 100 µM
HOP-92 NSCLC
  GI50: 0.0133 µM
  TGI: 0.492 µM
HS 578T breast
  GI50: 2.73 µM
  TGI: > 100 µM
HT29 colon
  GI50: < 0.01 µM
  TGI: > 100 µM
IGROV1 ovarian
  GI50: 0.0573 µM
  TGI: 39.1 µM
K-562 leukemia
  GI50: 0.205 µM
  TGI: > 100 µM
KM12 colon
  GI50: < 0.01 µM
  TGI: > 100 µM
LOX IMVI melanoma
  GI50: < 0.01 µM
  TGI: 0.722 µM
M14 melanoma
  GI50: < 0.01 µM
  TGI: < 0.01 µM
MALME-3M melanoma
  GI50: < 0.01 µM
  TGI: < 0.01 µM
MCF7 breast
  GI50: 33.7 µM
  TGI: > 100 µM
MDA-MB-231 breast
  GI50: 0.0331 µM
  TGI: 0.934 µM
MDA-MB-435 melanoma
  GI50: < 0.01 µM
  TGI: > 100 µM
MDA-MB-468 breast
  GI50: 0.865 µM
  TGI: 10.9 µM
MOLT-4 leukemia
  GI50: 28.1 µM
  TGI: 92.7 µM
NCI-H226 lung
  GI50: < 0.01 µM
  TGI: 18.1 µM
NCI-H23 lung
  GI50: < 0.01 µM
  TGI: 0.391 µM
NCI-H322M lung
  GI50: 0.0373 µM
  TGI: > 100 µM
NCI-H460 NSCLC
  GI50: 0.369 µM
  TGI: > 100 µM
NCI-H522 lung
  GI50: 15.3 µM
  TGI: > 100 µM
NCI/ADR-RES ovarian
  GI50: 6.17 µM
  TGI: 85.1 µM
OVCAR-3 ovarian
  GI50: 21.8 µM
  TGI: > 100 µM
OVCAR-4 ovarian
  GI50: 0.0375 µM
  TGI: 65.7 µM
OVCAR-5 ovarian
  GI50: < 0.01 µM
  TGI: 26.1 µM
OVCAR-8 ovarian
  GI50: 11.8 µM
  TGI: > 100 µM
PC-3 prostate
  GI50: > 100 µM
  TGI: > 100 µM
RPMI-8226 leukemia
  GI50: < 0.01 µM
  TGI: 18 µM
RXF 393 renal
  GI50: 0.645 µM
  TGI: > 100 µM
SF-268 CNS
  GI50: 33.3 µM
  TGI: > 100 µM
SF-295 CNS
  GI50: 22.3 µM
  TGI: > 100 µM
SF-539 CNS
  GI50: 1.34 µM
  TGI: 65.9 µM
SK-MEL-28 melanoma
  GI50: < 0.01 µM
  TGI: < 0.01 µM
SK-MEL-5 melanoma
  GI50: < 0.01 µM
  TGI: 45.8 µM
SK-OV-3 ovarian
  GI50: 7.02 µM
  TGI: > 100 µM
SN12C renal
  GI50: < 0.01 µM
  TGI: 22.9 µM
SNB-19 CNS
  GI50: 0.164 µM
  TGI: > 100 µM
SNB-75 CNS
  GI50: 2.68 µM
  TGI: 74.2 µM
SR leukemia
  GI50: 26.4 µM
  TGI: > 100 µM
SW-620 colon
  GI50: < 0.01 µM
  TGI: > 100 µM
T-47D breast
  GI50: 11.8 µM
  TGI: > 100 µM
TK-10 renal
  GI50: 0.689 µM
  TGI: > 100 µM
U251 glioblastoma
  GI50: 0.577 µM
  TGI: > 100 µM
UACC-257 melanoma
  GI50: < 0.01 µM
  TGI: < 0.01 µM
UACC-62 melanoma
  GI50: < 0.01 µM
  TGI: < 0.01 µM
UO-31 renal
  GI50: 0.506 µM
  TGI: 24.1 µM
